In patent US20120323002A1, “IMIDAZOPYRIDAZINE COMPOUNDS” (AJINOMOTO CO., INC., priority 2009, published 2012):

Columns and labels:
Format in all cases: cell-based, mouse (female Balb/c)
[1] = tested on: IL-12p70 (IL-12p35/p40 complex); experiment: Cytokine inhibiting action using mouse peritoneal macrophages: IL-12p70 production (ELISA); settings: Peritoneal macrophage, 100 ng/mL mouse interferon-γ + 0.05% (v/v) SAC, incubated overnight, 50% production inhibition concentration
Description: (§1) 1 mL of a 3% (w/v) thioglycolate solution was intraperitoneally administered to a mouse (female Balb/c). 5 or 6 days later, the peritoneal cells of the mouse were collected, and the adherent cells were used for evaluation. 100 ng/mL of mouse interferon-γ, a 0.05% (v/v) suspension of killed Staphylococcus aureus Cowan I strain (SAC) and a compound of the present invention were added thereto and incubated overnight. After the incubation, the survival rate was measured, and each of IL-12p70 (IL-12p35/p40 complex) and TNF-α was quantified by ELISA using the collected culture supernatant to calculate the 50% production inhibition concentration (IC50) (refer to Table 1; meanwhile, the blanks in the table indicate unmeasured).

TNF-α = experiment: Cytokine inhibiting action using mouse peritoneal macrophages: TNF-α production (ELISA); settings: Peritoneal macrophage, 100 ng/mL mouse interferon-γ + 0.05% (v/v) SAC, incubated overnight, 50% production inhibition concentration
Description: as §1

[2] = tested on: IL-12p70 (IL-12p35/p40 complex); experiment: Cytokine inhibiting action using mouse whole blood: IL-12p70 production (ELISA); settings: mouse whole blood (EDTA), 200 ng/mL mouse interferon-γ + 1.25% (v/v) SAC, incubated overnight; 50% production inhibition concentration
Description: The blood (EDTA addition) was collected from a mouse (female Balb/c) and used for evaluation. 200 ng/mL of mouse interferon-γ, a 1.25% (v/v) suspension of killed Staphylococcus aureus Cowan I strain (SAC) and a compound of the present invention were added to a cell culture medium, diluted to become a quantity equal to the blood and incubated overnight.

| IC50 [1] | IC50 (TNF-α) | IC50 [2] | SMILES |
| --- | --- | --- | --- |
| 32 nM | – | – | Cc1cccc(/C=N/Nc2cc(N3CCOCC3)c3nc(-c4ccccc4)cn3n2)c1 [Compound 1, N-(3-methyl-benzylidene)-N′-(8-morpholin-4-yl-2-phenyl-imidazo[1,2-b]pyridazin-6-yl)-hydrazine] |
| 36 nM | – | – | C(=N\Nc1cc(N2CCOCC2)c2nc(-c3ccccc3)cn2n1)/c1c[nH]c2ccccc12 [Compound 2, N-(1H-indol-3-yl-methylidene)-N′-(8-morpholin-4-yl-2-phenyl-imidazo[1,2-b]pyridazin-6-yl)-hydrazine] |
| 8.7 nM | > 10000 nM | 3000 nM | Cc1cccc(/C=N/Nc2cc(N3CCOCC3)c3nc(-c4cccnc4)cn3n2)c1 [Compound 3, N-(3-methyl-benzylidene)-N′-(8-morpholin-4-yl-2-pyridin-3-yl-imidazo[1,2-b]pyridazin-6-yl)-hydrazine] |
| 3.6 nM | > 10000 nM | 470 nM | Cc1cccc(/C=N/Nc2cc(N3CCOCC3)c3nc(-c4ccncc4)cn3n2)c1 [Compound 4, N-(3-methyl-benzylidene)-N′-(8-morpholin-4-yl-2-pyridin-4-yl-imidazo[1,2-b]pyridazin-6-yl)-hydrazine] |
| 33 nM | – | – | Cc1cccc(/C=N/Nc2cc(N3CCOCC3)c3nc(-c4cnn(-c5ccccc5)c4C)cn3n2)c1 [Compound 5, N-(3-methyl-benzylidene)-N′-[2-(5-methyl-1-phenyl-1H-pyrazol-4-yl)-8-morpholin-4-yl-imidazo[1,2-b]pyridazin-6-yl]-hydrazine] |
| 40 nM | – | – | Cc1cccc(/C=N/Nc2cc(N3CCOCC3)c3nc(-c4ccc(N5CCCC5)cc4)cn3n2)c1 [Compound 7, N-(3-methyl-benzylidene)-N′-[8-morpholin-4-yl-2-(4-pyrrolidin-1-yl-phenyl)-imidazo[1,2-b]pyridazin-6-yl]-hydrazine] |
| 15 nM | – | 1500 nM | Cc1cccc(/C=N/Nc2cc(N3CCOCC3)c3nc(-c4ccc(-c5ccccn5)s4)cn3n2)c1 [Compound 8, N-(3-methyl-benzylidene)-N′-[8-morpholin-4-yl-2-(5-pyridin-2-yl-thiophen-2-yl)-imidazo[1,2-b]pyridazin-6-yl]-hydrazine] |
| 8.1 nM | – | 180 nM | CCc1cccc(/C=N/Nc2cc(N3CCOCC3)c3nc(-c4ccncc4)cn3n2)c1 [Compound 10, N-(3-ethyl-benzylidene)-N′-(8-morpholin-4-yl-2-pyridin-4-yl-imidazo[1,2-b]pyridazin-6-yl)-hydrazine] |
| 130 nM | – | – | CC(C)c1cccc(/C=N/Nc2cc(N3CCOCC3)c3nc(-c4ccncc4)cn3n2)c1 [Compound 14, N-(3-isopropyl-benzylidene)-N′-(8-morpholin-4-yl-2-pyridin-4-yl-imidazo[1,2-b]pyridazin-6-yl)-hydrazine] |
| 77 nM | – | – | C=C(C)c1cccc(/C=N/Nc2cc(N3CCOCC3)c3nc(-c4ccncc4)cn3n2)c1 [Compound 16, N-(3-isopropenyl-benzylidene)-N′-(8-morpholin-4-yl-2-pyridin-4-yl-imidazo[1,2-b]pyridazin-6-yl)-hydrazine] |
| 37 nM | – | – | CC(=O)c1cccc(/C=N/Nc2cc(N3CCOCC3)c3nc(-c4ccncc4)cn3n2)c1 [Compound 17, N-(3-acetyl-benzylidene)-N′-(8-morpholin-4-yl-2-pyridin-4-yl-imidazo[1,2-b]pyridazin-6-yl)-hydrazine] |
| 63 nM | – | 550 nM | CN(C)c1cccc(/C=N/Nc2cc(N3CCOCC3)c3nc(-c4ccncc4)cn3n2)c1 [Compound 23, N-(3-dimethylamino-benzylidene)-N-(8-morpholin-4-yl-2-pyridin-4-yl-imidazo[1,2-b]pyridazin-6-yl)-hydrazine] |
| 44 nM | – | 63 nM | Cc1ccc(/C=N/Nc2cc(N3CCOCC3)c3nc(-c4ccncc4)cn3n2)cc1 [Compound 25, N-(4-methyl-benzylidene)-N′-(8-morpholin-4-yl-2-pyridin-4-yl-imidazo[1,2-b]pyridazin-6-yl)-hydrazine] |
| 1.1 nM | – | 1400 nM | Cc1cccc(/C=N/Nc2cc(N3CCOCC3)c3nc(-c4cn[nH]c4)cn3n2)c1 [Compound 29, N-(3-methyl-benzylidene)-N′-{8-morpholin-4-yl-2-(1H-pyrazol-4-yl)-imidazo[1,2-b]pyridazin-6-yl}-hydrazine] |

Further lines, the compound ahead of its results:

| SMILES | IC50 [1] | IC50 (TNF-α) | IC50 [2] |
| --- | --- | --- | --- |
| C(=N\Nc1cc(N2CCOCC2)c2nc(-c3ccncc3)cn2n1)/c1c[nH]c2ccccc12 [Compound 6, N-(1H-indol-3-yl-methylidene)-N′-(8-morpholin-4-yl-2-pyridin-4-yl-imidazo[1,2-b]pyridazin-6-yl)-hydrazine] | 92 nM | – | – |
| C(=N\Nc1cc(N2CCOCC2)c2nc(-c3ccncc3)cn2n1)/c1coc2ccccc12 [Compound 9, N-benzofuran-3-yl-methylidene-N′-(8-morpholin-4-yl-2-pyridin-4-yl-imidazo[1,2-b]pyridazin-6-v)-hydrazine] | 76 nM | – | 890 nM |
| C(=N\Nc1cc(N2CCOCC2)c2nc(-c3ccncc3)cn2n1)/c1csc2ccccc12 [Compound 11, N-benzo[b]thiophen-3-yl-methylidene-N′-(8-morpholin-4-yl-2-pyridin-4-yl-imidazo[1,2-b]pyridazin-6-yl)-hydrazine] | 30 nM | – | 1000 nM |
| Cc1[nH]c2ccc(/C=N/Nc3cc(N4CCOCC4)c4nc(-c5ccncc5)cn4n3)cc2c1C [Compound 12, N-(2,3-dimethyl-1H-indol-5-yl-methylidene)-N′-(8-morpholin-4-yl-2-pyridin-4-yl-imidazo[1,2-b]pyridazin-6-yl)-hydrazine] | 140 nM | – | – |
| Cc1ccc(/C=N/Nc2cc(N3CCOCC3)c3nc(-c4ccncc4)cn3n2)o1 [Compound 13, N-(5-methyl-furan-2-yl-methylidene)-N′-(8-morpholin-4-yl-2-pyridin-4-yl-imidazo[1,2-b]pyridazin-6-yl)-hydrazine] | 190 nM | – | – |
| C(=N\Nc1cc(N2CCOCC2)c2nc(-c3ccncc3)cn2n1)/c1ccc2cc[nH]c2c1 [Compound 15, N-(1H-indol-6-yl-methylidene)-N′-(8-morpholin-4-yl-2-pyridin-4-yl-imidazo[1,2-b]pyridazin-6-yl)-hydrazine] | 54 nM | – | – |
| CCCCC(C)c1cccc(/C=N/Nc2cc(N3CCOCC3)c3nc(-c4ccncc4)cn3n2)c1 (stereo not drawn) [Compound 18, N-[3-(1-methyl-pentyl)-benzylidene]-N′-(8-morpholin-4-yl-2-pyridin-4-yl-imidazo[1,2-b]pyridazin-6-yl)-hydrazine] | 1100 nM | – | – |
| C=Cc1cccc(/C=N/Nc2cc(N3CCOCC3)c3nc(-c4ccncc4)cn3n2)c1 [Compound 19, N-(3-vinyl-benzylidene)-N-(8-morpholin-4-yl-2-pyridin-4-yl-imidazo[1,2-b]pyridazin-6-yl)-hydrazine] | 6.4 nM | – | – |
| C(=N\Nc1cc(N2CCOCC2)c2nc(-c3ccncc3)cn2n1)/c1ccc2occc2c1 [Compound 20, N-benzofuran-5-ylmethylene-N′-(8-morpholin-4-yl-2-pyridin-4-yl-imidazo[1,2-b]pyridazin-6-yl)-hydrazine] | 9.4 nM | – | 150 nM |
| C(=N\Nc1cc(N2CCOCC2)c2nc(-c3ccncc3)cn2n1)/c1cc2ccccc2[nH]1 [Compound 21, N-(1H-indol-2-ylmethylene)-N-(8-morpholin-4-yl-2-pyridin-4-yl-imidazo[1,2-b]pyridazin-6-yl)-hydrazine] | 16 nM | – | 340 nM |
| FC(F)c1cccc(/C=N/Nc2cc(N3CCOCC3)c3nc(-c4ccncc4)cn3n2)c1 [Compound 22, N-(3-difluoromethyl-benzylidene)-N-(8-morpholin-4-yl-2-pyridin-4-yl-imidazo[1,2-b]pyridazin-6-yl)-hydrazine] | 40 nM | – | 110 nM |
| Cc1ccc(/C=N/Nc2cc(N3CCOCC3)c3nc(-c4ccncc4)cn3n2)[nH]1 [Compound 24, N-(5-methyl-1H-pyrrol-2-ylmethylene)-N-(8-morpholin-4-yl-2-pyridin-4-yl-imidazo[1,2-b]pyridazin-6-yl)-hydrazine] | 370 nM | – | – |
| FCc1ccc(/C=N/Nc2cc(N3CCOCC3)c3nc(-c4ccncc4)cn3n2)cc1 [Compound 26, N-(4-fluoromethyl-benzylidene)-N′-(8-morpholin-4-yl-2-pyridin-4-yl-imidazo[1,2-b]pyridazin-6-yl)-hydrazine] | 46 nM | – | 270 nM |
| CN1CCc2ccc(/C=N/Nc3cc(N4CCOCC4)c4nc(-c5ccncc5)cn4n3)cc21 [Compound 27, N-(N-methylindoline-6-ylmethylene)-N-(8-morpholin-4-yl-2-pyridin-4-yl-imidazo[1,2-b]pyridazin-6-yl)-hydrazine] | 44 nM | – | 1200 nM |
| Cc1ccccc1/C=N/Nc1cc(N2CCOCC2)c2nc(-c3ccncc3)cn2n1 [Compound 28, N-(2-methyl-benzylidene)-N′-(8-morpholin-4-yl-2-pyridin-4-yl-imidazo[1,2-b]pyridazin-6-yl)-hydrazine] | 76 nM | – | 290 nM |
| Cc1ccc(-c2cn3nc(N/N=C/c4c[nH]c5ccccc45)cc(N4CCOCC4)c3n2)cn1 [Compound 30, N-(1H-indol-3-yl-methylene)-N′-[2-(6-methyl-pyridin-3-yl)-8-morpholin-4-yl-imidazo[1,2-b]pyridazin-6-yl]-hydrazine] | 5.2 nM | – | 1900 nM |
